Assay results published in US12570618B2, “Compound, production method therefor, and pharmaceutical composition” (TOKYO UNIVERSITY OF SCIENCE FOUNDATION, priority 2021, dated 2026).

Experiments:
[1] = system: DLD-1 (Colorectal cancer cell line); assay: cell proliferation inhibitory activity, WST-8 (Test Example 2); format: cell-based; details: Homo sapiens, 48 h, DLD-1, 2 days with compound
From the text: (§1) Compounds RS1 to RS7 obtained in Synthesis Examples 1 to 7, and M-COPA synthesized in the same manner as in Synthesis Example 1 in Patent Document 1 were examined for cell proliferation inhibitory activity against human cultured cancer cells. The cancer cells used were eight human cancer cell lines (one skin cancer cell line, one ovarian cancer cell line, one prostate cancer cell line, two lung adenocarcinoma cell lines, one colorectal cancer cell line, two breast adenocarcinoma cell lines). The cancer cells of each type were seeded on a 96-well plate and cultured for 2 days, and cultured for 2 days with addition of serially diluted products of the compounds, and the cell proliferation was then measured by colorimetry with a water-soluble tetrazolium salt (WST-8). Thereafter, 50% cell proliferation inhibitory concentrations (GI50) were calculated from the cell proliferation curves.

[2] = system: H2228 (Lung adenocarcinoma cell line); assay: as above; format: cell-based; details: Homo sapiens, NCI-H2228, 48 h; H2228, 2 days with compound, WST-8, Table 2
From the text: as §1

[3] = system: DU-145 (Prostate cancer cell line); assay: as above; format: cell-based; details: Homo sapiens, 48 h, DU-145, 2 days with compound
From the text: as §1

[4] = system: Hs925t (Skin cancer cell line); assay: as above; format: cell-based; details: Homo sapiens, 48 h, 2 days with compound
From the text: as §1

[5] = system: SK-OV3 (Ovarian cancer cell line); assay: as above; format: cell-based; details: Homo sapiens, SK-OV-3, 48 h, SK-OV3, 2 days with compound
From the text: as §1

[6] = system: Hs578t (Breast adenocarcinoma cell line); assay: as above; format: cell-based; details: Homo sapiens, Hs-578T, 48 h, 2 days with compound
From the text: as §1

[7] = system: MCF-7 (Breast adenocarcinoma cell line); assay: as above; format: cell-based; details: Homo sapiens, MCF7, 48 h, MCF-7, 2 days with compound
From the text: as §1

[8] = system: H1650 (Lung adenocarcinoma cell line); assay: as above; format: cell-based; details: Homo sapiens, NCI-H1650, 48 h; H1650, 2 days with compound, WST-8, Table 2
From the text: as §1

[9] = system: H2228 (Lung adenocarcinoma cell line); assay: cell proliferation inhibitory activity, WST-8 (Test Example 3); format: cell-based; details: Homo sapiens, NCI-H2228, 48 h; H2228, 2 days with compound, WST-8, Table 3
Procedure: (§2) Compounds RS8 to RS10 obtained in Synthesis Examples 8 to 10 were examined for cell proliferation inhibitory activity against human cultured cancer cells. The cancer cells used were two human lung adenocarcinoma cell lines and one human lung squamous cell carcinoma cell line. The cancer cells of each type were seeded on a 96-well plate and cultured for 2 days, and cultured for 2 days with addition of serially diluted products of the compounds, and the cell proliferation was then measured by colorimetry with a water-soluble tetrazolium salt (WST-8). Thereafter, 50% cell proliferation inhibitory concentrations (GI50) were calculated from the cell proliferation curves.

[10] = system: H226 (Lung squamous cell carcinoma cell line); assay: as above; format: cell-based; details: Homo sapiens, NCI-H226, 48 h; H226, 2 days with compound, WST-8, Table 3
Procedure: as §2

[11] = system: H1650 (Lung adenocarcinoma cell line); assay: as above; format: cell-based; details: Homo sapiens, NCI-H1650, 48 h; H1650, 2 days with compound, WST-8, Table 3
Procedure: as §2

HMC-1.2 cells = assay: cell proliferation inhibitory activity, ATP production (Test Example 1); format: cell-based, human; details: for inhibition of cell proliferation (in words): HMC-1.2 cells, FIG. 3; for IC50: Homo sapiens, 48 h, HMC-1.2 cells (KIT^V560G/D816V, imatinib-resistant), cultured 2 days with compound, ATP production, n=3
From the text: (§3) Compounds RS1, RS2, and RS5 obtained in Synthesis Examples 1, 2, and 5, and M-COPA synthesized in the same manner as in Synthesis Example 1 in Patent Document 1 were examined for cell proliferation inhibitory activity against human cultured cancer cells with KIT tyrosine kinase mutation. The human cultured cancer cells used were GIST-T1 cells (KIT^Δ560-578. imatinib-sensitive) and GIST-R9 cells (KIV^Δ560-578/D820V, imatinib-resistant) as gastrointestinal stromal tumor cell lines, and HMC-1.2 cells (KIT^V560G/D816V, imatinib-resistant) as a mast cell leukemia cell line. The cancer cells of each type were seeded on a 96-well plate and cultured overnight, and cultured for 2 days with addition of serially diluted products of the compounds, and the cell proliferation was then measured by quantifying the ATP production (n=3). FIG. 1 to FIG. 3 show the cell proliferation curves for the GIST-T1 cells, GIST-R9 cells, and HMC-1.2 cells.

GIST-T1 cells = assay: as above; format: cell-based, human; details: for inhibition of cell proliferation (in words): GIST-T1 cells, FIG. 1; for IC50: Homo sapiens, GISTT1, 48 h, GIST-T1 cells (KIT^Δ560-578, imatinib-sensitive), cultured 2 days with compound, ATP production, n=3
From the text: as §3

GIST-R9 cells = assay: as above; format: cell-based, human; details: for inhibition of cell proliferation (in words): GIST-R9 cells, FIG. 2; for IC50: Homo sapiens, 48 h, GIST-R9 cells (KIV^Δ560-578/D820V, imatinib-resistant), cultured 2 days with compound, ATP production, n=3
From the text: as §3

Row | GI50 [1] | GI50 [2] | GI50 [3] | GI50 [4] | GI50 [5] | GI50 [6] | GI50 [7] | GI50 [8] | GI50 [9] | GI50 [10] | GI50 [11] | Structure (SMILES) | inhibition of cell proliferation (in words) (HMC-1.2 cells) | IC50 (HMC-1.2 cells) | inhibition of cell proliferation (in words) (GIST-T1 cells) | IC50 (GIST-T1 cells) | inhibition of cell proliferation (in words) (GIST-R9 cells) | IC50 (GIST-R9 cells)
1 | 0.04 µM | 0.1 µM | 0.05 µM | 0.003 µM | 0.005 µM | 0.03 µM | 0.1 µM | 0.1 µM | – | – | – | C[C@H]1[C@@H]2[C@@H](/C=C/C=C(\Br)C(=O)NCc3cncs3)[C@@H](C)C=C[C@H]2CC[C@@H]1O [RS6, (2Z,4E)-2-Bromo-5-((1′S,2′S,4′aR,7′S,8′S,8′aS)-7′-hydroxy-2′,8′-dimethyl-1′,2′,4′a,5′,6′,7′,8′,8′a-octahydronaphthalen-1′-yl)-N-(thiazol-5″-ylmethyl)penta-2,4-dienamide] | – | – | – | – | – | –
2 | 0.03 µM | 1 µM | 0.3 µM | 0.03 µM | 0.05 µM | 0.01 µM | 1 µM | 0.1 µM | – | – | – | C[C@H]1[C@@H]2[C@@H](/C=C/C=C(\Br)C(=O)NCc3cccnc3)[C@@H](C)C=C[C@H]2CC[C@@H]1O [RS7, (2Z,4E)-2-Bromo-5-((1′S,2′S,4′aR,7′S,8′S,8′aS)-7′-hydroxy-2′,8′-dimethyl-1′,2′,4′a,5′,6′,7′,8′,8′a-octahydronaphthalen-1′-yl)-N-(pyridin-3″-ylmethyl)penta-2,4-dienamide] | – | – | – | – | – | –
3 | 0.04 µM | 0.07 µM | 0.3 µM | 0.01 µM | 0.04 µM | 0.03 µM | 0.5 µM | 0.07 µM | – | – | – | C[C@@H]1[C@@H](O)[C@H](C)C[C@@H]2C=C[C@H](C)[C@H](/C=C/C=C(\Br)C(=O)NCc3nccs3)[C@@H]12 [RS4, (2Z,4E)-2-Bromo-5-((1′S,2′S,4′aR,6′R,7′S,8′S,8′aS)-7′-hydroxy-2′,6′,8′-trimethyl-1′,2′,4′a,5′,6′,7′,8′,8′a-octahydronaphthalen-1′-yl)-N-(thiazol-2″-ylmethyl)penta-2,4-dienamide] | – | – | – | – | – | –
4 | – | – | – | – | – | – | – | – | 0.3 µM | 0.04 µM | 0.3 µM | C[C@@H]1[C@@H](O)[C@H](C)C[C@@H]2C=C[C@H](C)[C@H](/C=C/C=C(\Br)C(=O)NCc3ccccn3)[C@@H]12 [RS8, (2Z,4E)-2-Bromo-5-((1′S,2′S,4′aR,6′R,7′S,8′S,8′aS)-7′-hydroxy-2′,6′,8′-trimethyl-1′,2′,4′a,5′,6′,7′,8′,8′a-octahydronaphthalen-1′-yl)-N-(pyridin-2″-ylmethyl)penta-2,4-dienamide] | – | – | – | – | – | –
5 | 0.001 µM | 0.04 µM | 0.01 µM | 0.0003 µM | 0.003 µM | 0.03 µM | 0.03 µM | 0.03 µM | – | – | – | C[C@@H]1[C@@H](O)[C@H](C)C[C@@H]2C=C[C@H](C)[C@H](/C=C/C=C(\Br)C(=O)NCc3cncs3)[C@@H]12 [RS2, (2Z,4E)-2-Bromo-5-((1′S,2′S,4′aR,6′R,7′S,8′S,8′aS)-7′-hydroxy-2′,6′,8′-trimethyl-1′,2′,4′a,5′,6′,7′,8′,8′a-octahydronaphthalen-1′-yl)-N-(thiazol-5″-ylmethyl)penta-2,4-dienamide] | in a concentration-dependent manner | 0.037 µM | in a concentration-dependent manner | 0.128 µM | in a concentration-dependent manner | 0.169 µM
6 | – | – | – | – | – | – | – | – | 0.4 µM | 0.04 µM | 0.2 µM | C[C@@H]1[C@@H](O)[C@H](C)C[C@@H]2C=C[C@H](C)[C@H](/C=C/C=C(\Br)C(=O)OCc3cccnc3)[C@@H]12 [RS9, Pyridin-3″-ylmethyl (2Z,4E)-2-bromo-5-((1′S,2′S,4′aR,6′R,7′S,8′S,8′aS)7′-hydroxy-2′,6′,8′-trimethyl-1′,2′,4′a,5′,6′,7′,8′,8′a-octahydronaphthalen-1′-yl)penta-2,4-dienoate] | – | – | – | – | – | –
7 | 0.0003 µM | 0.03 µM | 0.01 µM | 0.0001 µM | 0.001 µM | 0.03 µM | 0.08 µM | 0.05 µM | – | – | – | C[C@@H]1[C@@H](O)[C@H](C)C[C@@H]2C=C[C@H](C)[C@H](/C=C/C=C(\Br)C(=O)NCc3cccnc3)[C@@H]12 [RS5, (2Z,4E)-2-Bromo-5-((1′S,2′S,4′aR,6′R,7′S,8′S,8′aS)-7′-hydroxy-2′,6′,8′-trimethyl-1′,2′,4′a,5′,6′,7′,8′,8′a-octahydronaphthalen-1′-yl)-N-(pyridin-3″-ylmethyl)penta-2,4-dienamide] | in a concentration-dependent manner | 0.042 µM | in a concentration-dependent manner | 0.169 µM | in a concentration-dependent manner | 0.292 µM
8 | 0.03 µM | 0.05 µM | 0.2 µM | 0.03 µM | 0.03 µM | 0.003 µM | 0.3 µM | 0.08 µM | – | – | – | C[C@@H]1[C@@H](O)[C@H](C)C[C@@H]2C=C[C@H](C)[C@H](/C=C/C=C(\Br)C(=O)NCc3cocn3)[C@@H]12 [RS3, (2Z,4E)-2-Bromo-5-((1′S,2′S,4′aR,6′R,7′S,8′S,8′aS)-7′-hydroxy-2′,6′,8′-trimethyl-1′,2′,4′a,5′,6′,7′,8′,8′a-octahydronaphthalen-1′-yl)-N-(oxazol-4″-ylmethyl)penta-2,4-dienamide] | – | – | – | – | – | –
9 | 0.03 µM | 0.04 µM | 0.1 µM | 0.05 µM | 0.03 µM | 0.04 µM | 0.35 µM | 0.08 µM | – | – | – | C/C(=C\C=C\[C@@H]1[C@H]2[C@H](C)[C@@H](O)[C@H](C)C[C@@H]2C=C[C@@H]1C)C(=O)NCc1cccnc1 [M-COPA, 2-methylcoprophilinamide, reference compound] | – | 0.086 ± 0.009 µM | – | 0.347 ± 0.021 µM | – | 0.528 ± 0.059 µM
10 | 0.003 µM | 0.01 µM | 0.04 µM | 0.001 µM | 0.005 µM | 0.003 µM | 0.03 µM | 0.005 µM | – | – | – | C[C@@H]1[C@@H](O)[C@H](C)C[C@@H]2C=C[C@H](C)[C@H](/C=C/C=C(\Br)C(=O)NCc3cnco3)[C@@H]12 [RS1, (2Z,4E)-2-Bromo-5-((1′S,2′S,4′aR,6′R,7′S,8′S,8′aS)-7′-hydroxy-2′,6′,8′-trimethyl-1′,2′,4′a,5′,6′,7′,8′,8′a-octahydronaphthalen-1′-yl)-N-(oxazol-5″-ylmethyl)penta-2,4-dienamide] | in a concentration-dependent manner | 0.05 µM | in a concentration-dependent manner | 0.268 µM | in a concentration-dependent manner | 0.363 µM
